Measurements: US9682090B2, “Methods for treating and preventing prostate cancer bone metastases” (University of Washington, priority 2014, dated 2017)

Columns and labels:
[1] = molecular target: T1, PAP (Homo sapiens, UniProt P15309); conditions: Vovk et al. 2008; cited from earlier work
T1 sequence (P15309 33-386): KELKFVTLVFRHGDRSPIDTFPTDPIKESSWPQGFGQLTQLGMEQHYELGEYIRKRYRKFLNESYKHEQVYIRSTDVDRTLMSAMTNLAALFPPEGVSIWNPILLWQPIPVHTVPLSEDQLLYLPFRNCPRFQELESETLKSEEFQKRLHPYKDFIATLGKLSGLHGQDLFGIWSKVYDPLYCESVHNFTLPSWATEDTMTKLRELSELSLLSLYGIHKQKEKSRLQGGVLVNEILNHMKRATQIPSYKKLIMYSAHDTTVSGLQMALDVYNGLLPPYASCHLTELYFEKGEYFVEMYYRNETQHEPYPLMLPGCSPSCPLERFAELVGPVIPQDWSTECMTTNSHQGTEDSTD

[2] = test system: MC3T3-E1 cells; experiment: Alizarin Red mineralization assay in MC3T3-E1 cells; format: cell-based, mouse; conditions: PA 25 μM down to 0.2 μM, MC3T3-E1 cells without PAP
[3] = test system: MC3T3-E1 cells; experiment: Inhibition of LuCaP 23.1 CM-induced mineralization in MC3T3-E1 cells (Alizarin Red); format: cell-based, mouse; conditions: 5 μM PA
Experimental: (§1) Cultured cells, HCO or MC3T3-E1, were seeded at 50,000 cells/well in MEM and 10% FBS. MM was added to all cultures 1-2 days after seeding and replaced every other day. MM, LuCaP 23.1 CM (5%, 10%, or 20%), PAP, lyophilized powder obtained from human prostatic fluid (CSI 14633A; CELL SCIENCES®, Canton, Mass.) or phosphonic acid, P-[phenyl[(phenylmethyl)amino]methyl]- (CAS#25881-35-0; AURORA FINE CHEMICALS™ LLC, San Diego, Calif.) was added to cultures typically on day 5-6, before mineralization occurred. After mineralization, cells were fixed in 10% formalin for 20 minutes and then washed. 2% Alizarin Red was added to air-dried plates. After washing, retained dye was extracted in a solution of 20% methanol and 10% acetic acid in water, and absorbance was measured at 405 nm.
(§2) The benzylaminophosphonic acids are inhibitors of PAP (see Beers S A, et al. (1996) Bioorg Med Chem 4:1693-1701). […] To determine if PA would reduce LuCaP 23.1 CM associated mineralization, MC3T3-E1 cells were treated with 5% to 20% LuCaP 23.1 CM with 5 μM PA.

[4] = molecular target: T1, PAP; experiment: Inhibition of PAP-induced mineralization in MC3T3-E1 cells (Alizarin Red); format: cell-based; set-up: PAP, lyophilized powder obtained from human prostatic fluid; purchased CELL SCIENCES, Canton, Mass; CSI 14633A; host or cells: natural protein from human prostatic fluid; added to mouse MC3T3-E1 cells; conditions: MC3T3-E1 cells treated with 0.05 units of PAP
Experimental: as §1, §2

Structure (SMILES) | PAP inhibition [1] | inhibition of mineralization by PA alone [2] | effect on mineralization ([3]; 5% LuCaP 23.1 CM) | effect on mineralization ([3]; 10% LuCaP 23.1 CM) | effect on mineralization ([3]; 20% LuCaP 23.1 CM) | decrease in mineralization ([4]; 3.15 μM PA) | decrease in mineralization ([4]; 6.25 μM PA) | decrease in mineralization ([4]; 12.5 μM PA) | decrease in mineralization ([4]; 25 μM PA) | lowest PA concentration with significant effect on mineralization ([4]; PA tested 25 μM to 0.2 μM)
O=P(O)(O)[C@@H](NCc1ccccc1)c1ccccc1 (single isomer, unassigned) [R enantiomer of P-[phenyl[(phenylmethyl)amino]methyl]-, P-[phenyl[(phenylmethyl)amino]methyl]-] | potent inhibitor |  |  |  |  |  |  |  |  | 
O=P(O)(O)C(NCc1ccccc1)c1ccccc1 (stereo not shown) [PA, [phenyl[(phenylmethyl)amino]methyl]-phosphonic acid] |  | No significant inhibition | significantly reduced mineralization | significantly reduced mineralization | significantly reduced mineralization | 97.9% | 92.1% | 95.6% | 97.6% | 0.4 µM
